Among the data in patent US20140120087A1, “TRIAZOLOPYRIDINES” (BAYER INTELLECTUAL PROPERTY GMBH, priority 2011, published 2014) are IC50 values, retold here.

pIC50: −log10 of the molar value.

In general, pIC50 refers to the negative decadic logarithm of the IC50, by convention in mol/L.

Test [1] has as its target T1, Mps-1 kinase (Homo sapiens, UniProt P33981).
T1 sequence (P33981 1-857): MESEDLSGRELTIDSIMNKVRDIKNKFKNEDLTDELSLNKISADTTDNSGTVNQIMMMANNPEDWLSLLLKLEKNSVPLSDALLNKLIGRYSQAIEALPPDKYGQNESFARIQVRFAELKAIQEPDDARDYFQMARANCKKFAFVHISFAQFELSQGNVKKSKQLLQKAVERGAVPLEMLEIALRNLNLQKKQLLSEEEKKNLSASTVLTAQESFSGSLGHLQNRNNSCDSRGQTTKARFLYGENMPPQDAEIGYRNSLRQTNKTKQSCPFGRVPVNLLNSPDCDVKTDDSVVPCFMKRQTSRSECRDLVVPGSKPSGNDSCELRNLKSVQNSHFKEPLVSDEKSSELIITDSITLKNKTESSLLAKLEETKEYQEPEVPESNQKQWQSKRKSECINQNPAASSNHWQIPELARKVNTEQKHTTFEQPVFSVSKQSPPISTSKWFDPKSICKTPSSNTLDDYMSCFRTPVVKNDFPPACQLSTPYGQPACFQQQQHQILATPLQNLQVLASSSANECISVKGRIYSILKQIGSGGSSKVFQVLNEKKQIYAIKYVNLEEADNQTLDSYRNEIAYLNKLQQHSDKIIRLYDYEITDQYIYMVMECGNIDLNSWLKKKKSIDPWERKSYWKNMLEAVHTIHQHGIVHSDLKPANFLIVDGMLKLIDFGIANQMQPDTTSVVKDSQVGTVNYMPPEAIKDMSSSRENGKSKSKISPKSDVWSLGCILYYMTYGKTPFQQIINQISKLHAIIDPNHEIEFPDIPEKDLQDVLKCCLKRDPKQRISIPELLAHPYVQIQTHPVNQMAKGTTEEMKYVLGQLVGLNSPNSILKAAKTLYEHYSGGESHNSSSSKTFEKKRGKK
Nature of the test: Mps-1 kinase assay with 10 μM ATP (TR-FRET). On the technique in general: TR-FRET usually uses a lanthanide donor and a delayed reading to cut background.

Test [2] addresses T1, Mps-1 kinase. Nature of the test: Mps-1 kinase assay with 2 mM ATP (TR-FRET).

Take `Cc1cc(-c2ccc3nc(Nc4ccc(S(C)(=O)=O)cc4OCC(F)(F)F)nn3c2)ccc1C(=O)NCc1ccc(F)cc1` [Example 04.2, N-(4-fluorobenzyl)-2-methyl-4-(2-{[4-(methylsulfonyl)-2-(2,2,2-trifluoro-ethoxy)phenyl]amino}[1,2,4]triazolo[, 5-α]pyridin-6-yl)benzamide]: the pIC50 is at least 9.00 against Mps-1 kinase [1] and 7.82 at Mps-1 kinase [2].
On the same counts, the results for `Cc1cc(S(C)(=O)=O)ccc1Nc1nc2ccc(-c3ccc(C(=O)NCc4ccc(Cl)cc4)cc3)cn2n1` [Example 12.74, N-(4-chlorobenzyl)-4-(2-{[2-methyl-4-(methylsulfonyl)-phenyl]amino}[1,2,4]triazolo [1,5-a]pyridin-6-yl)-benzamide] are at least 9.00 and 7.80.
The corresponding values for `Cc1cc(S(C)(=O)=O)ccc1Nc1nc2ccc(-c3ccc(NC(=O)Cc4ccc(F)cc4)cc3)cn2n1` [Example 12.32, 2-(4-fluorophenyl)-N-[4-(2-{[2-methyl-4-(methyl-sulfonyl)phenyl]amino}-[1,2,4]triazolo[1,5-a]pyridin-6-yl)phenyl]acetamide] are at least 9.00 and 8.66.
The corresponding values for `COc1cc(C(=O)NCCF)ccc1Nc1nc2ccc(-c3ccc(NC(=O)Cc4ccc(F)cc4)cc3)cn2n1` [Example 12.05, N-(2-fluoroethyl)-4-{[6-(4-{[(4-fluorophenyl)acetyl]-amino}phenyl)[1,2,4]-triazolo[1,5-a]pyridin-2-yl]amino}-3-methoxy-benzamide] are at least 9.00 and at least 9.00.
Turning to `CCNC(=O)c1cc(C)c(Nc2nc3ccc(-c4ccc(NC(=O)Cc5ccc(F)cc5)cc4)cn3n2)cn1` [Example 12.37, N-ethyl-5-{[6-(4-{[(4-fluoro-phenyl)acetyl]amino}-phenyl)[1,2,4]triazolo[1,5-a]pyridin-2-yl]amino}-4-methylpyridine-2-carboxamide], the negative logarithm of the IC50 (pIC50) against Mps-1 kinase [1] was at least 9.00; at Mps-1 kinase [2], 7.89.
The corresponding values for `CCN(Cc1ccc(Nc2nc3ccc(-c4ccc(NC(=O)Cc5ccc(F)cc5)cc4)cn3n2)c(OC)c1)C(C)(C)CO` [Example 12.16, N-(4-{2-[(4-{[ethyl(1-hydroxy-2-methylpropan-2-yl)amino]methyl}-2-methoxyphenyl)amino]-[1,2,4]triazolo[1,5-a]pyridin-6-yl}phenyl)-2-(4-fluorophenyl)acetamide] are at least 9.00 and at least 9.00.
The corresponding values for `COc1cc([S@@+](C)[O-])ccc1Nc1nc2ccc(-c3ccc(C(=O)NCc4ccc(F)cc4)cc3)cn2n1` (stereo in doubt) [Example 12.51, N-(4-fluorobenzyl)-4-(2-{[2-methoxy-4-(methylsulfinyl)-phenyl]amino}[1,2,4]-triazolo[1,5-a]pyridin-6-yl)-benzamide] are at least 9.00 and 8.59.
Turning to `Cc1cc(C(=O)NCC(F)(F)F)ccc1Nc1nc2ccc(-c3ccc(NC(=O)Cc4ccc(F)cc4)cc3)cn2n1` [Example 12.29, 4-{[6-(4-{[(4-fluorophenyl)-acetyl]amino}phenyl)[1,2,4]triazolo[1,5-a]pyridin-2-yl]amino}-3-methyl-N-(2,2,2-trifluoroethyl)-benzamide], the negative logarithm of the IC50 (pIC50) on Mps-1 kinase [1] was at least 9.00; against Mps-1 kinase [2] it was 8.64.
In the case of `CCOc1cc(S(C)(=O)=O)ccc1Nc1nc2ccc(-c3ccc(NC(=O)Cc4ccc(F)cc4)cc3)cn2n1` [Example 01.32, N-[4-(2-{[2-ethoxy-4-(methylsulfonyl)phenyl]amino}[1,2,4]triazolo[1,5-α]-pyridin-6-yl)phenyl]-2-(4-fluorophenyl)acetamide], the pIC50 against Mps-1 kinase [1] and against Mps-1 kinase [2] was at least 9.00 in each case.
Regarding `COc1cc(C(=O)NCCCF)ccc1Nc1nc2ccc(-c3ccc(NC(=O)Cc4ccc(F)cc4)cc3)cn2n1` [Example 12.11, 4-{[6-(4-{[(4-fluorophenyl)-acetyl]amino}phenyl)[1,2,4]triazolo[1,5-a]pyridin-2-yl]amino}-N-(3-fluoro-propyl)-3-methoxybenzamide], the negative logarithm of the IC50 (pIC50) at Mps-1 kinase [1] was at least 9.00; against Mps-1 kinase [2], 8.92.
Take `CCOc1cc(S(C)(=O)=O)ccc1Nc1nc2ccc(-c3ccc(C(=O)NCc4ccc(F)cc4)cc3)cn2n1` [Example 02.25, 4-(2-{[2-ethoxy-4-(methylsulfonyl)phenyl]amino}[1,2,4]triazolo[1,5-α]-pyridin-6-yl)-N-(4-fluorobenzyl)benzamide]: the negative logarithm of the IC50 (pIC50) was at least 9.00 against Mps-1 kinase [1] and 8.48 against Mps-1 kinase [2].
In the case of `Cc1ccc(CNC(=O)c2ccc(-c3ccc4nc(Nc5ccc([S@@+](C)[O-])cc5C)nn4c3)cc2)cc1` (stereo in doubt) [Example 12.78, N-(4-methylbenzyl)-4-(2-{[2-methyl-4-(methylsulfinyl)-phenyl]amino}[1,2,4]triazolo [1,5-a]pyridin-6-yl)-benzamide], the negative logarithm of the IC50 (pIC50) is at least 9.00 on Mps-1 kinase [1] and 8.12 against Mps-1 kinase [2].
The corresponding values for `COc1cc(C(=O)N(C)C)ccc1Nc1nc2ccc(-c3ccc(C(=O)NCc4ccc(F)cc4)cc3)cn2n1` [Example 12.46, 4-[(6-{4-[(4-fluorobenzyl)-carbamoyl]phenyl}[1,2,4]triazolo [1,5-a]pyridin-2-yl)-amino]-3-methoxy-N,N-dimethylbenzamide] are at least 9.00 and 8.46.
On to `COc1cc(CO)ccc1Nc1nc2ccc(-c3ccc(NC(=O)Cc4ccc(F)cc4)cc3)cn2n1` [Example 12.84, 2-(4-fluorophenyl)-N-[4-(2-{[4-(hydroxymethyl)-2-methoxyphenyl]amino}-[1,2,4]triazolo[1,5-α]pyridin-6-yl)phenyl]acetamide], for which the pIC50 against Mps-1 kinase [1] and on Mps-1 kinase [2] was at least 9.00 throughout.
Take `COc1cc(S(C)(=O)=O)ccc1Nc1nc2ccc(-c3ccc(C(=O)NCc4ccc(C)cc4)cc3)cn2n1` [Example 12.76, 4-(2-{[2-methoxy-4-(methyl-sulfonyl)phenyl]amino}-[1,2,4]triazolo[1,5-a]pyridin-6-yl)-N-(4-methyl-benzyl)benzamide]: the negative-log IC50 (pIC50) against Mps-1 kinase [1] is at least 9.00; at Mps-1 kinase [2], 8.13.
In the case of `CNC(=O)c1ccc(Nc2nc3ccc(-c4ccc(NC(=O)Cc5ccc(F)cc5)cc4)cn3n2)c(OC)c1` [Example 01.30, 4-{[6-(4-{[(4-fluorophenyl)acetyl]amino}phenyl)[1,2,4]triazolo[1,5-α]-pyridin-2-yl]amino}-3-methoxy-N-methylbenzamide], the negative logarithm of the IC50 (pIC50) at Mps-1 kinase [1] and on Mps-1 kinase [2] was at least 9.00 throughout.
`Cc1cc(C(=O)N(C)C)ccc1Nc1nc2ccc(-c3ccc(NC(=O)Cc4ccc(F)cc4)cc3)cn2n1` [Example 12.31, 4-{[6-(4-{[(4-fluorophenyl)-acetyl]amino}phenyl)[1,2,4]triazolo[1,5-a]pyridin-2-yl]amino}-N,N,3-trimethyl-benzamide]: the values for the negative logarithm of the IC50 (pIC50) at Mps-1 kinase [1] and at Mps-1 kinase [2] were at least 9.00 and 8.42, respectively.
On the same counts, the results for `Cc1cc(N(C)C)ccc1Nc1nc2ccc(-c3ccc(NC(=O)Cc4ccc(F)cc4)cc3)cn2n1` [Example 12.36, N-[4-(2-{[4-(dimethylamino)-2-methylphenyl]-amino}[1,2,4]triazolo[1,5-a]pyridin-6-yl)phenyl]-2-(4-fluorophenyl)acetamide] are at least 9.00 and 8.46.
On the same counts, the results for `NC(=O)c1ccc(Nc2nc3ccc(-c4ccc(NC(=O)Cc5ccc(F)cc5)cc4)cn3n2)c(OC(F)(F)F)c1` [Example 12.25, 4-{[6-(4-{[(4-fluorophenyl)-acetyl]amino}phenyl)[1,2,4]triazolo[1,5-a]pyridin-2-yl]amino}-3-(trifluoro-methoxy)benzamide] are at least 9.00 and 8.57.
The corresponding values for `CCOc1cc(C(=O)N(C)CC)ccc1Nc1nc2ccc(-c3ccc(NC(=O)Cc4ccc(F)cc4)cc3)cn2n1` [Example 12.19, 3-ethoxy-N-ethyl-4-{[6-(4-{[(4-fluorophenyl)acetyl]-amino}phenyl)[1,2,4]-triazolo[1,5-a]pyridin-2-yl]amino}-N-methyl-benzamide] are at least 9.00 and at least 9.00.
In the case of `CS(=O)(=O)c1ccc(Nc2nc3ccc(-c4ccc(NC(=O)Cc5ccc(F)cc5)cc4)cn3n2)c(OCC(F)(F)F)c1` [Example 01.34, 2-(4-fluorophenyl)-N-[4-(2-{[4-(methylsulfonyl)-2-(2,2,2-trifluoroethoxy)-phenyl]amino}[1,2,4]triazolo[1,5-α]pyridin-6-yl)phenyl]acetamide], the pIC50 against Mps-1 kinase [1] and on Mps-1 kinase [2] was at least 9.00 throughout.
For `CS(=O)(=O)c1ccc(Nc2nc3ccc(-c4ccc(C(=O)NCc5ccc(F)cc5)cc4)cn3n2)c(OC2CC2)c1` [Example 02.29, 4-(2-{[2-(cyclopropyloxy)-4-(methylsulfonyl)phenyl]amino}[1,2,4]triazolo-[1,5-α]pyridin-6-yl)-N-(4-fluorobenzyl)benzamide], the pIC50 against Mps-1 kinase [1] is at least 9.00; against Mps-1 kinase [2] it was 8.12.
